Values belong to the compound of their own block, whether it stands above or below them.
Tests used:
Type in all cases: physicochemical
[1] = Stressing under various relative humidities (solid form by XRPD); conditions: for RH stability: solid form change after exposing to 58% RH / RH stability: solid form change after exposing to 75% RH: am = amorphous
Protocol: Stressing Under Various Relative Humidities (RH)
The jar was sealed and stored at either ambient temperature or in an oven at elevated temperature.
X-ray powder diffraction (XRPD) analyses were performed using a Shimadzu XRD-6000 X-ray powder diffractometer using Cu Kα radiation. The instrument is equipped with a long fine focus X-ray tube. The tube voltage and amperage were set to 40 kV and 40 mA, respectively. The divergence and scattering slits were set at 1° and the receiving slit was set at 0.15 mm. Diffracted radiation was detected by a NaI scintillation detector. A θ-2θ continuous scan at 3°/min (0.4 sec/0.02° step) from 2.5 to 40°2θ was used. A silicon standard was analyzed to check the instrument alignment. Data were collected and analyzed using XRD-6100/7000 v. 5.0. Samples were prepared for analysis by placing them in a sample holder.
X-ray powder diffraction (XRPD) analyses were performed using an Inel XRG-3000 diffractometer equipped with a CPS (Curved Position Sensitive) detector with a 2θ range of 120°. Real time data were collected using Cu—Kα radiation starting at approximately 4° 2θ at a resolution of 0.03° 2θ. The tube voltage and amperage were set to 40 kV and 30 mA, respectively. The monochromator slit was set at 5 mm by 160 μm. […] Samples were prepared for analysis by packing them into thin-walled glass capillaries. Each capillary was mounted onto a goniometer head that is motorized to permit spinning of the capillary during data acquisition. The samples were analyzed for 300 sec. Instrument calibration was performed using a silicon reference standard.

[2] = Automated moisture sorption/desorption (MB / DVS); conditions: for Post-MB XRPD / Final Form post moisture sorption/desorption: sorption from 5% RH to 95% RH, desorption from 95% RH to 5% RH; for wt loss upon equilibration at 5% RH: moisture balance
Protocol: Automated Moisture Sorption/Desorption Moisture sorption/desorption data were collected on a VTI SGA-100 Vapor Sorption Analyzer. Sorption and desorption data were collected over a range of 5% to 95% relative humidity (RH) at 10% RH intervals under a nitrogen purge. Samples were not dried prior to analysis. Equilibrium criteria used for analysis were less than 0.0100% weight change in 5 minutes, with a maximum equilibration time of 3 hours if the weight criterion was not met. Data were not corrected for the initial moisture content of the samples. NaCl and PVP were used as calibration standards.

[3] = Rifaximin drying experiments (solid form by XRPD); conditions: for XRPD Form: vac oven 50° C., 1 day; for solid form after vacuum dried: vacuum dried (Table 1)
Source text: Dried materials obtained by vacuum drying or heating the hydrates were labeled “dry”. […] After a portion of the rifaximin was removed for XRPD analysis the remainder of the sample was dried under vacuum at ambient temperature for approximately one day. Solids were stored in a dessicator prior to analysis by XRPD. (FIG. 9)

[4] = Stressing of amorphous rifaximin (vapor stress, vapor diffusion); conditions: for form from vapor diffusion experiment: water as an antisolvent
Protocol: (§1) Vapor stressing experiments were done on amorphous material from two preparations: lyophilization from p-dioxane:water 1:1 and crash precipitation from ethyl acetate with heptane. […] The majority of the stressed samples appeared as clear red solutions after 6 days. Those solutions were placed in vials of antisolvent for vapor diffusion. Dry and wet milling experiments were conducted on amorphous materials from the two preparations mentioned above. Amorphous materials were recovered from the dry milling experiments.

[5] = Milling experiments for amorphous rifaximin; conditions: scraped sides
Protocol: as §1
A solid sample of rifaximin was charged to a milling container with a milling ball. Samples were milled for 5 or 15 minute intervals (2×5 minutes, 2×15 minutes, and 3×15 minutes) at 30 Hz using a Retsch MM200 mixer mill. Solids were scraped from the sides of the vial after each interval.

[6] = first amorphous sample of Table 3 (footnote c, 3436-54)
[7] = second amorphous sample of Table 3 (footnote d, 3436-55)

Structure (SMILES): CO[C@H]1/C=C/O[C@@]2(C)Oc3c(C)c(O)c4c(O)c(c5c(nc6cc(C)ccn65)c4c3C2=O)NC(=O)/C(C)=C\C=C\[C@H](C)[C@H](O)[C@@H](C)[C@@H](O)[C@@H](C)[C@H](OC(C)=O)[C@@H]1C [Form α-dry, Rifaximin]
Final Form ([1]; 33% RH, 2 days): α
Final Form ([1]; 33% RH, 7 days): α
Final Form ([1]; 43% RH, 4 days): α + β
Final Form ([1]; 43% RH, 11 days): β + (α)
RH stability: solid form change after exposing to 58% RH ([1]; listed as α dry): β
RH stability: solid form change after exposing to 75% RH ([1]; listed as α dry): β
RH stability: solid form change after exposing to 94% RH ([1]; 94% RH): β
Post-MB XRPD / Final Form post moisture sorption/desorption ([2]; listed as α dry): α dry
XRPD Form [3]: α dry
XRPD Form ([3]; vac oven 60° C.): α dry
solid form after vacuum dried ([3]; listed as α dry): α dry

Structure (SMILES): CO[C@H]1/C=C/O[C@@]2(C)Oc3c(C)c(O)c4c(O)c(c5c(nc6cc(C)ccn65)c4c3C2=O)NC(=O)/C(C)=C\C=C\[C@H](C)[C@H](O)[C@@H](C)[C@@H](O)[C@@H](C)[C@H](OC(C)=O)[C@@H]1C [Form β, Rifaximin, reference compound]
XRPD Form ([1]; P2O5, 4 days): α dry

Structure (SMILES): CO[C@H]1/C=C/O[C@@]2(C)Oc3c(C)c(O)c4c(O)c(c5c(nc6cc(C)ccn65)c4c3C2=O)NC(=O)/C(C)=C\C=C\[C@H](C)[C@H](O)[C@@H](C)[C@@H](O)[C@@H](C)[C@H](OC(C)=O)[C@@H]1C [Form β-1, Rifaximin]
RH stability: solid form change after exposing to 58% RH ([1]; listed as β-1): β + pk
RH stability: solid form change after exposing to 75% RH ([1]; listed as β-1): β

Structure (SMILES): CO[C@H]1/C=C/O[C@@]2(C)Oc3c(C)c(O)c4c(O)c(c5c(nc6cc(C)ccn65)c4c3C2=O)NC(=O)/C(C)=C\C=C\[C@H](C)[C@H](O)[C@@H](C)[C@@H](O)[C@@H](C)[C@H](OC(C)=O)[C@@H]1C [Form β-2, Rifaximin]
RH stability: solid form change ([1]; studied at 20% RH (footnote d)): α^d
solid form after vacuum dried ([3]; listed as β-2): α dry

Structure (SMILES): CO[C@H]1/C=C/O[C@@]2(C)Oc3c(C)c(O)c4c(O)c(c5c(nc6cc(C)ccn65)c4c3C2=O)NC(=O)/C(C)=C\C=C\[C@H](C)[C@H](O)[C@@H](C)[C@@H](O)[C@@H](C)[C@H](OC(C)=O)[C@@H]1C [Form γ, Rifaximin, reference compound]
hygroscopicity [2]: hygroscopic
wt loss upon equilibration at 5% RH [2]: 2.4%

Structure (SMILES): CO[C@H]1/C=C/O[C@@]2(C)Oc3c(C)c(O)c4c(O)c(c5c(nc6cc(C)ccn65)c4c3C2=O)NC(=O)/C(C)=C\C=C\[C@H](C)[C@H](O)[C@@H](C)[C@@H](O)[C@@H](C)[C@H](OC(C)=O)[C@@H]1C [amorphous, Rifaximin]
form by XRPD analysis after storage ([1]; 58% RH for 8 days): remained amorphous
RH stability: solid form change after exposing to 58% RH [1]: am
RH stability: solid form change after exposing to 75% RH [1]: am
DVS weight gain from 5-95% RH [2, 6]: 8.364% eight gain from 5-95%
DVS weight loss from 95-5% RH [2, 6]: 10.989% weight loss from 95-
wt loss upon equilibration at 5% RH ([2]; listed as Rifaximin Amorphous): 0.7% wt loss upon equilibration at 5% RH
DVS weight gain from 5-95% RH [2, 7]: 7.843% weight gain from 5-
DVS weight loss from 95-5% RH [2, 7]: 9.172% weight loss from 95-5%
Post-MB XRPD / Final Form post moisture sorption/desorption ([2]; listed as Amorphous): amorphous
Post-MB XRPD / Final Form post moisture sorption/desorption ([2]; listed as Amorphous rifaximin): amorphous
Post-MB XRPD / Final Form post moisture sorption/desorption ([2]; listed as Rifaximin Amorphous): amorphous
XRPD Result ([4]; DCM, VD w/ IPE, 11 days): amorphous
XRPD Result ([4]; MEK, VD w/ IPE, 11 days): amorphous
form from vapor diffusion experiment ([4]; methanol): Form β
form from vapor diffusion experiment ([4]; tetrahydrofuran): Form β
XRPD Result ([4]; toluene, VS, RT, 6 days, Amorphous Materials): amorphous
XRPD Result ([4]; toluene, VS, RT, 6 days, listed as amorphous material): no peaks
XRPD Result ([4]; water, VS, RT, 15 days): amorphous
XRPD Result after milling ([5]; sample source CP from EtOAc with heptane, 10 min. at 30 Hz): amor-
XRPD Result after milling ([5]; sample source lyophilization from p-dioxane: water 1:1, 10 min. at 30 Hz): amor-

Structure (SMILES): CO[C@H]1/C=C/O[C@@]2(C)Oc3c(C)c(O)c4c(O)c(c5c(nc6cc(C)ccn65)c4c3C2=O)NC(=O)/C(C)=C\C=C\[C@H](C)[C@H](O)[C@@H](C)[C@@H](O)[C@@H](C)[C@H](OC(C)=O)[C@@H]1C [lyophilized amorphous rifaximin, Rifaximin]
hygroscopicity [2]: moderately hygroscopic

Second part, the compound after the results:

XRPD Form / Final Form after stability chamber ([1]; 75% RH at 40° C., 1 day): ζ + γ^e
solid form after vacuum dried [3]: η or and γ + η
Structure (SMILES): CO[C@H]1/C=C/O[C@@]2(C)Oc3c(C)c(O)c4c(O)c(c5c(nc6cc(C)ccn65)c4c3C2=O)NC(=O)/C(C)=C\C=C\[C@H](C)[C@H](O)[C@@H](C)[C@@H](O)[C@@H](C)[C@H](OC(C)=O)[C@@H]1C [Form ζ, Rifaximin]

solid form after vacuum dried ([3]; listed as η): η
Structure (SMILES): CO[C@H]1/C=C/O[C@@]2(C)Oc3c(C)c(O)c4c(O)c(c5c(nc6cc(C)ccn65)c4c3C2=O)NC(=O)/C(C)=C\C=C\[C@H](C)[C@H](O)[C@@H](C)[C@@H](O)[C@@H](C)[C@H](OC(C)=O)[C@@H]1C [Form η, Rifaximin]

hygroscopicity [2]: moderately hygroscopic
Structure (SMILES): CO[C@H]1/C=C/O[C@@]2(C)Oc3c(C)c(O)c4c(O)c(c5c(nc6cc(C)ccn65)c4c3C2=O)NC(=O)/C(C)=C\C=C\[C@H](C)[C@H](O)[C@@H](C)[C@@H](O)[C@@H](C)[C@H](OC(C)=O)[C@@H]1C [crash amorphous rifaximin, Rifaximin]

Reference: patent publication US8754098B2 (Salix Pharmaceuticals, Ltd., priority 2008, dated 2014)
